Assay results from patent US11254663B2 (BRISTOL-MYERS SQUIBB COMPANY, priority 2019, dated 2022).

Target: FXR (Homo sapiens (Human), UniProt Q96RI1)
Assay: transient human FXR/Gal4-luciferase reporter assay
Assay type: cell-based
Settings: Gal4-hFXR fusion construct, HEK293 reporter cells; response relative to 8 μM GW-4064
Method: A Gal4-hFXR fusion construct reporter system was used as the primary assay to characterize compound activity. A construct including 5 copies of the Gal4 promoter response element upstream of a firefly luciferase reporter cDNA was stably expressed in HEK293 cells. This reporter cell line was maintained in Dulbecco's Modified Eagle's medium (DMEM; Gibco) supplemented with 1% penicillin-streptomycin (P/S) solution, 500 μg/mL Zeocin and 10% charcoal/dextran-treated fetal bovine serum (cs-FBS) at 37° C. in a humidified 5% CO2 atmosphere. Another plasmid was constructed in which the human cytomegalovirus promoter in the pcDNA3.1 vector directs the expression of the cDNA encoding a fusion protein comprised of the DNA binding domain from the Gal4 transcription factor fused to the ligand binding domain from human FXR.
The day prior to transfection, the reporter cells in culture are detached from the plate with trypsin and plated into a T75 flask at a sufficient density to achieve approximately 90% confluence the next morning. The transfection reagents are prepared by separately diluting 25 μg of the pcDNA3.1-Gal4-FXR plasmid into 1.87 mL of Opti-MEM (Thermo-Fisher), and 40 μL of Lipofectamine 2000 (Thermo-Fisher) into 1.87 mL of Opti-MEM, and then adding the diluted DNA solution into the diluted Lipofectamine 2000 solution and incubating at room temperature for 15-20 minutes. The mixture is further diluted with 10 mL of a solution comprised of DMEM, 10% cs-FBS, and 1% P/S immediately prior to transferring to the cells. The maintenance culture media is aspirated from the cells and the final transfection mixture is added before the cells are incubated overnight at 37° C. in a humidified 5% CO2 atmosphere. This protocol can be scaled up, and the transiently transfected cells can be cryopreserved in an assay-ready format.
For compound testing, 100 nL of the compounds (serial dilutions in DMSO) are dispensed with an Echo acoustic dispenser (Labcyte) into the wells of a Corning/Costar clear bottom 384-well white plate. The transfected cells are harvested, counted, and diluted such that 10-25,000 cells in 25 μL are plated into each well of the 384-well compound assay plate. The compound-treated cells are incubated overnight at 37° C. in a humidified 5% CO2 atmosphere. The next morning 25 μL of Steady-Glo (Promega) are added to each well of the plate, the mixture is incubated for 15 min. with shaking, and luminescence is measured on an Envision (Perkin Elmer) plate reader.

FXR, sequence (Q96RI1 262-486): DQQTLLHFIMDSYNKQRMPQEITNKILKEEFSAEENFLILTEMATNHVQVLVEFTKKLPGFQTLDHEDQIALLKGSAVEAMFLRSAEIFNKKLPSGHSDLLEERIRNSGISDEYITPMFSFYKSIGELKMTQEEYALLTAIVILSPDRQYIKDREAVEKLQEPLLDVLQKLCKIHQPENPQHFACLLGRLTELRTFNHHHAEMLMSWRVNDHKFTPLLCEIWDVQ

EC50 [nM]	SMILES
16	CC(C)(O)c1ccc(-c2cccc(N(CC34CCC(c5noc(C(C)(C)F)n5)(CC3)CC4)C(=O)NC3CCC(O)(C(F)(F)F)CC3)c2)cc1 (single isomer, unassigned) [Example 600, 1-((4-(5-(2-fluoropropan-2-yl)-1,2,4-oxadiazol-3-yl)bicyclo[2.2.2]octan-1-yl)methyl)-3-(4-hydroxy-4-(trifluoromethyl)cyclohexyl)-1-(4′-(2-hydroxypropan-2-yl)-[1,1′-biphenyl]-3-yl) urea]
246	CC(C)(O)c1ccc(-c2cccc(N(CC34CCC(c5noc(C(C)(C)F)n5)(CC3)CC4)C(=O)NC3CCC(O)(C(F)(F)F)CC3)c2)cc1 (single isomer, unassigned) [Example 601, 1-((4-(5-(2-fluoropropan-2-yl)-1,2,4-oxadiazol-3-yl)bicyclo[2.2.2]octan-1-yl)methyl)-3-(4-hydroxy-4-(trifluoromethyl)cyclohexyl)-1-(4′-(2-hydroxypropan-2-yl)-[1,1′-biphenyl]-3-yl) urea]
92	CC(F)(F)c1nc(C23CCC(CN(C(=O)C4CC(O)(C(F)(F)F)C4)c4cccc(-c5ccc(C(O)C(F)F)cc5)c4)(CC2)CC3)no1 (single isomer, unassigned) [Example 628 (first eluting isomer)]
128	CC(F)(F)c1nc(C23CCC(CN(C(=O)C4CC(O)(C(F)(F)F)C4)c4cccc(-c5ccc(C(O)C(F)F)cc5)c4)(CC2)CC3)no1 (single isomer, unassigned) [Example 628 (second eluting isomer)]
988	COc1cc(-c2cccc(N(CC34CCC(c5nnc(C)o5)(CC3)CC4)C(=O)C34CC(F)(C3)C4)c2)ccn1 [Example 230, 3-Fluoro-N-(3-(2-methoxypyridin-4-yl)phenyl)-N-((4-(5-methyl-1,3,4-oxadiazol-2-yl)bicyclo[2.2.2]octan-1-yl)methyl)bicyclo[1.1.1]pentane-1-carboxamide]
592	COc1cc(-c2cccc(N(CC34CCC(c5nnc(C)o5)(CC3)CC4)C(=O)C3CCC3)c2)ccn1 [Example 231, N-(3-(2-methoxypyridin-4-yl)phenyl)-N-((4-(5-methyl-1,3,4-oxadiazol-2-yl)bicyclo[2.2.2]octan-1-yl)methyl)cyclobutanecarboxamide]
465	COc1cc(-c2cccc(N(CC34CCC(c5nnc(C)s5)(CC3)CC4)C(=O)C34CC(F)(C3)C4)c2)ccn1 [Example 232, 3-Fluoro-N-(3-(2-methoxypyridin-4-yl)phenyl)-N-((4-(5-methyl-1,3,4-thiadiazol-2-yl)bicyclo[2.2.2]octan-1-yl)methyl)bicyclo[1.1.1]pentane-1-carboxamide]

SMILES	EC50 [nM]
COc1cc(-c2cccc(N(CC34CCC(c5nnc(C)s5)(CC3)CC4)C(=O)C3CCCC3)c2)ccn1 [Example 233, N-(3-(2-methoxypyridin-4-yl)phenyl)-N-((4-(5-methyl-1,3,4-thiadiazol-2-yl)bicyclo[2.2.2]octan-1-yl)methyl)cyclopentanecarboxamide]	1100
COc1cc(-c2cccc(N(CC34CCC(c5nnc(C)s5)(CC3)CC4)C(=O)C3CC(F)(F)C3)c2)ccn1 [Example 234, 3,3-difluoro-N-(3-(2-methoxypyridin-4-yl)phenyl)-N-((4-(5-methyl-1,3,4-thiadiazol-2-yl)bicyclo[2.2.2]octan-1-yl)methyl)cyclobutane-1-carboxamide]	1760
COc1cc(-c2cccc(N(CC34CCC(c5nnc(C)s5)(CC3)CC4)C(=O)C3CCC(F)(F)C3)c2)ccn1 (stereo not shown) [Example 235, 3,3-difluoro-N-(3-(2-methoxypyridin-4-yl)phenyl)-N-((4-(5-methyl-1,3,4-thiadiazol-2-yl)bicyclo[2.2.2]octan-1-yl)methyl)cyclopentane-1-carboxamide]	895
